Results: patent US4390629A, “Polypeptide degrading enzymes” (President and Fellows of Harvard College, priority 1981, dated 1983)
Where two headings read alike, the source gives them in different places.

How the values were obtained:
[1] = molecular target: T1, La (Escherichia coli, UniProt P0A9M0)
[2] = test system: Protease Ci; experiment: Inhibition and stimulation of protease Ci insulin-degrading activity; type: biochemical, E. coli
[3] = molecular target: T2, Protease Re (Escherichia coli, UniProt P23865); experiment: Sensitivity of protease Re proteolytic activity (casein) to inhibitors; type: biochemical, E. coli
T2 sequence (P23865 23-682): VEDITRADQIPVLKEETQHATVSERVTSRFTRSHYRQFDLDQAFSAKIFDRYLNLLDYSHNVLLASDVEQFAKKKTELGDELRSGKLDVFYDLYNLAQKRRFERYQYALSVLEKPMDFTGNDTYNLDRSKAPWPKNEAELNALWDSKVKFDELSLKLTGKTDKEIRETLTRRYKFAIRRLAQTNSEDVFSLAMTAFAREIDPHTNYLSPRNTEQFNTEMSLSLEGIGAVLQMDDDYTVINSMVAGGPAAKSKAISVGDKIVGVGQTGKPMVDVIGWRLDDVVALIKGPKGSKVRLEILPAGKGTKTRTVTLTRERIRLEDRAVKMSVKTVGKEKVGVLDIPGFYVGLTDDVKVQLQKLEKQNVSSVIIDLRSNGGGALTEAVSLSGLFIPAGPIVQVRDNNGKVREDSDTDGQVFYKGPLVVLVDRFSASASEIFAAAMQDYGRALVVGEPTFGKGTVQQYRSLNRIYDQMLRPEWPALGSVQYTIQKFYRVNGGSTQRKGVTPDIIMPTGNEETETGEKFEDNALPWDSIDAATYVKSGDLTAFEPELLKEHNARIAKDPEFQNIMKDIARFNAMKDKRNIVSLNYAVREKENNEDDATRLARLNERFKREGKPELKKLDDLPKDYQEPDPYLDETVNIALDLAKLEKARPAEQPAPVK

[4] = test system: Protease So; type: biochemical, E. coli
[5] = test system: Fa; type: biochemical, E. coli
[6] = test system: Mi; type: biochemical, E. coli
[7] = molecular target: T1, La; experiment: biochemical; conditions: read-out: stimulation of globin-degrading activity in peak IV
[8] = test system: [^14 C] globin; experiment: Degradation of [14C] globin to acid-soluble products; type: biochemical, beef
[9] = test system: [^3 H] casein; experiment: Degradation of [3H] casein to acid-soluble products; type: biochemical, bovine

Q: For CCN1C(=O)C=CC1=O [N-ethyl maleimide], which “sensitivity of La to inhibitor” value [1] is on record?
A: inhibited

Q: With bacitracin as the molecule, how does the “inhibition of protease Ci activity by antibiotics” value [2] read?
A: strongly inhibit

Q: What does the source list for O=S(=O)(F)Cc1ccccc1 [phenylmethyl sulfonyl fluoride]?
A: sensitivity of La to inhibitor [1]: sensitive; sensitivity of protease Re to inhibitor [3]: sensitive; sensitivity of protease So to inhibitor [4]: sensitive

Q: For Nc1ccn([C@@H]2O[C@H](COP(=O)(O)OP(=O)(O)OP(=O)(O)O)[C@@H](O)[C@H]2O)c(=O)n1 [CTP], which “stimulation of La proteolysis by nucleotides (in words)” value (shortened to “stimulation of La proteolysis”) [1] is on record?
A: stimulate but less effectively

Q: For O=C(O)CN(CCN(CC(=O)O)CC(=O)O)CC(=O)O [EDTA], which “inhibition of Fa” value [5] is on record?
A: 60%

Q: And the “sensitivity of protease Re to inhibitor” value [3]?
A: sensitive

Q: And the “inhibition of Mi” value [6]?
A: about 35%

Q: With Nc1ncnc2c1ncn2[C@H]1C[C@H](O)[C@@H](COP(=O)(O)OP(=O)(O)OP(=O)(O)O)O1 [deoxyadenosine triphosphate] as the molecule, how does the “stimulation of La proteolysis” value [1] read?
A: stimulate but less effectively

Q: O=c1ccn([C@@H]2O[C@H](COP(=O)(O)OP(=O)(O)OP(=O)(O)O)[C@@H](O)[C@H]2O)c(=O)[nH]1 [UTP] was tested. Which “stimulation of La proteolysis” value [1] did it give?
A: stimulate but less effectively

Q: How did the “stimulation of protease Ci activity by divalent cations” value (shortened to “stimulation of protease Ci activity”) [2] turn out when [Zn+2] [Zn^++] was run?
A: not

Q: With [Mn+2] [Mn^++] as the molecule, how does the “stimulation of protease Ci activity” value [2] read?
A: markedly stimulated

Q: Which “inhibition of protease Ci activity” value [2] does the source give for O=C(O)CN(CCOCCOCCN(CC(=O)O)CC(=O)O)CC(=O)O [EGTA] here?
A: not

Q: N=C(N)c1ccc(OCCCCCOc2ccc(C(=N)N)cc2)cc1 [pentamidine] was tested. Which “inhibition of protease So” value [4] did it give?
A: about 80%

Q: With [Co+2] [Co^++] as the molecule, how does the “stimulation of protease Ci activity” value [2] read?
A: markedly stimulated

Q: c1cnc2c(c1)ccc1cccnc12 [o-phenanthroline] was tested. Which “inhibition of protease Ci activity” value [2] did it give?
A: inhibited

Q: And the “inhibition of Fa” value [5]?
A: about 35%

Q: What about the “sensitivity of protease Re to inhibitor” value ([3]; casein as substrate) of the same molecule?
A: sensitive

Q: And the “inhibition of Mi” value [6]?
A: about 35%

Q: How did the “sensitivity of La to inhibitor” value [1] turn out when [O]=[V]([O-])([O-])[O-] [Vanadate] was run?
A: sensitive to inhibition

Q: How did the “increase of degradation of globin and casein by La” value ([1]; 3000 µM) turn out when Nc1ncnc2c1ncn2[C@@H]1O[C@H](COP(=O)(O)OP(=O)(O)OP(=O)(O)O)[C@@H](O)[C@H]1O [ATP] was run?
A: 2.5-20 fold

Q: What about the fold induction at 3000 µM [7] of the same molecule?
A: 4 to 20

Q: How did the “inhibition of protease Ci activity” value [2] turn out when O=C(O)c1cc[c]([Hg+])cc1.[OH-] [p-hydroxymercuribenzoate] was run?
A: sensitive

Q: With CCCCCCC1OC(=O)CNC(=O)C(C(C)O)NC(=O)C(CO)NC(=O)C(C(C)CC)NC(=O)C(CC(C)C)N(C)C(=O)C1C (centres unmarked) [globomycin] as the molecule, how does the “inhibition of protease Ci activity by antibiotics” value ([2]; concentrations of 5-20 μg per ml) read?
A: strongly inhibit

B1: Do: E. coli serine protease of about 520,000 daltons, degrades globin and casein (protein, UniProt P0C0V0 27-474, looked up)
Periplasmic serine …: AETSSATTAQQMPSLAPMLEKVMPSVVSINVEGSTTVNTPRMPRNFQQFFGDDSPFCQEGSPFQSSPFCQGGQGGNGGGQQQKFMALGSGVIIDADKGYVVTNNHVVDNATVIKVQLSDGRKFDAKMVGKDPRSDIALIQIQNPKNLTAIKMADSDALRVGDYTVAIGNPFGLGETVTSGIVSALGRSGLNAENYENFIQTDAAINRGNSGGALVNLNGELIGINTAILAPDGGNIGIGFAIPSNMVKNLTSQMVEYGQVKRGELGIMGTELNSELAKAMKVDAQRGAFVSQVLPNSSAAKAGIKAGDVITSLNGKPISSFAALRAQVGTMPVGSKLTLGLLRDGKQVNVNLELQQSSQNQVDSSSIFNGIEGAEMSNKGKDQGVVVNNVKTGTPAAQIGLKKGDVIIGANQQAVKNIAELRKVLDSKPSVLALNIQRGDSTIYLLMQ
Q: What does the source list for B1?
A: degradation of globin [8]: hydrolyze; degradation of casein [9]: hydrolyze

B2: La: ATP-dependent cytoplasmic E. coli serine protease of peak IV, about 115,000 daltons (protein, UniProt P0A9M0 2-784, looked up)
Lon protease: NPERSERIEIPVLPLRDVVVYPHMVIPLFVGREKSIRCLEAAMDHDKKIMLVAQKEASTDEPGVNDLFTVGTVASILQMLKLPDGTVKVLVEGLQRARISALSDNGEHFSAKAEYLESPTIDEREQEVLVRTAISQFEGYIKLNKKIPPEVLTSLNSIDDPARLADTIAAHMPLKLADKQSVLEMSDVNERLEYLMAMMESEIDLLQVEKRIRNRVKKQMEKSQREYYLNEQMKAIQKELGEMDDAPDENEALKRKIDAAKMPKEAKEKAEAELQKLKMMSPMSAEATVVRGYIDWMVQVPWNARSKVKKDLRQAQEILDTDHYGLERVKDRILEYLAVQSRVNKIKGPILCLVGPPGVGKTSLGQSIAKATGRKYVRMALGGVRDEAEIRGHRRTYIGSMPGKLIQKMAKVGVKNPLFLLDEIDKMSSDMRGDPASALLEVLDPEQNVAFSDHYLEVDYDLSDVMFVATSNSMNIPAPLLDRMEVIRLSGYTEDEKLNIAKRHLLPKQIERNALKKGELTVDDSAIIGIIRYYTREAGVRGLEREISKLCRKAVKQLLLDKSLKHIEINGDNLHDYLGVQRFDYGRADNENRVGQVTGLAWTEVGGDLLTIETACVPGKGKLTYTGSLGEVMQESIQAALTVVRARAEKLGINPDFYEKRDIHVHVPEGATPKDGPSAGIAMCTALVSCLTGNPVRADVAMTGEITLRGQVLPIGGLKEKLLAAHRGGIKTVLIPFENKRDLEEIPDNVIADLDIHPVKRIEEVLTLALQNEPSGMQVVTAK
Q: B2 was tested. Which degradation of globin [8] did it give?
A: capable of degrading

Q: And the degradation of casein [9]?
A: capable of degrading
